Assay results published in US20190030018A1 (Celgene Corporation, priority 2017, published 2019).

Test system: 563 solid tumor cell lines
Experiment: Luminex assay in PRISM, 5 days treatment (AUC)
Assay type: cell-based
Design: AUC: scale not given here
Experimental: The AUC values provided in Table 80 below were calculated based on the Median Fluorescent Intensity values, the primary read out of the Luminex assay in PRISM. The following parameters were used in this assay: • 8 point dose was used in triplicate • max concentration of 10 μM was used with serial 4-fold dilutions (low of […]) • 563 adherent cell lines in 23 pools. • treatment duration was 5 days.

In the case of `O=C1CCC(N2Cc3cc(CNC(=O)C(F)(F)c4ccc(Cl)cc4)ccc3C2=O)C(=O)N1` (stereo not shown) [Compound 1, 2-(4-chlorophenyl)-N-((2-(2,6-dioxopiperidin-3-yl)-1-oxoisoindolin-5-yl)methyl)-2,2-difluoroacetamide], the AUC (SIMA_AUTONOMIC_GANGLIA) is reported as 0.764, the AUC (SJSA1_BONE) is reported as 0.808 and the AUC (SKES1_BONE) is reported as 0.984. The AUC (SKHEP1_LIVER) was 0.817, the AUC (SKLU1_LUNG) was 0.644 and the AUC (SKMEL2_SKIN) was 0.910. The AUC (SKMEL3_SKIN) was 0.848, the AUC (SKMEL5_SKIN) was 0.831 and the AUC (SKMEL24_SKIN) was 0.862. The AUC (SKMEL30_SKIN) was 0.795, the AUC (SKMES1_LUNG) was 0.902 and the AUC (SKNAS_AUTONOMIC_GANGLIA) was 0.832. The AUC (SKNBE2_AUTONOMIC_GANGLIA) was 0.879, the AUC (SKNEP1_BONE) was 0.523 and the AUC (SKNFI_AUTONOMIC_GANGLIA) was 0.852. For the same molecule, the AUC (SKOV3_OVARY) was 0.850, the AUC (SKPNDW_BONE) was 0.861 and the AUC (SKUT1_SOFT_TISSUE) was 0.845. It also gave an AUC (SNB75_CENTRAL_NERVOUS_SYSTEM) of 0.768, an AUC (SNGM_ENDOMETRIUM) of 0.794 and an AUC (SNU46_UPPER_AERODIGESTIVE_TRACT) of 0.925. For the same molecule, the AUC (SNU61_LARGE_INTESTINE) was 0.881, the AUC (SNU81_LARGE_INTESTINE) was 0.400 and the AUC (SNU182_LIVER) was 0.179. The AUC (SNU216_STOMACH) was 0.521, the AUC (SNU245_BILIARY_TRACT) was 0.853 and the AUC (SNU308_BILIARY_TRACT) was 0.873. It also gave an AUC (SNU398_LIVER) of 0.951, an AUC (SNU407_LARGE_INTESTINE) of 0.284 and an AUC (SNU410_PANCREAS) of 0.994. For the same molecule, the AUC (SNU423_LIVER) was 0.697, the AUC (SNU449_LIVER) was 0.971 and the AUC (SNU668_STOMACH) was 0.423. It also gave an AUC (SNU685_ENDOMETRIUM) of 0.812, an AUC (SNU719_STOMACH) of 0.869 and an AUC (SNU738_CENTRAL_NERVOUS_SYSTEM) of 0.826. It also gave an AUC (SNU840_OVARY) of 0.848, an AUC (SNU869_BILIARY_TRACT) of 0.782 and an AUC (SNU878_LIVER) of 0.890. The AUC (SNU886_LIVER) was 0.656, the AUC (SNU1041_UPPER_AERODIGESTIVE_TRACT) was 0.806 and the AUC (SNU1066_UPPER_AERODIGESTIVE_TRACT) was 0.860. It also gave an AUC (SNU1077_ENDOMETRIUM) of 0.759, an AUC (SNU1105_CENTRAL_NERVOUS_SYSTEM) of 0.620 and an AUC (SNU1196_BILIARY_TRACT) of 0.653. It also gave an AUC (SNU1214_UPPER_AERODIGESTIVE_TRACT) of 0.826, an AUC (SNUC2A_LARGE_INTESTINE) of 0.608 and an AUC (SNUC4_LARGE_INTESTINE) of 0.290. The AUC (SQ1_LUNG) was 0.838, the AUC (SU8686_PANCREAS) was 0.848 and the AUC (SUIT2_PANCREAS) was 0.856. It also gave an AUC (SW780_URINARY_TRACT) of 0.986, an AUC (SW837_LARGE_INTESTINE) of 0.995 and an AUC (SW948_LARGE_INTESTINE) of 0.766. It also gave an AUC (SW1088_CENTRAL_NERVOUS_SYSTEM) of 0.835, an AUC (SW1116_LARGE_INTESTINE) of 0.879 and an AUC (SW1271_LUNG) of 0.718. The AUC (SW1573_LUNG) was 0.894, the AUC (SW1710_URINARY_TRACT) was 0.835 and the AUC (SW1990_PANCREAS) was 0.874. It also gave an AUC (T3M10_LUNG) of 0.951, an AUC (T24_URINARY_TRACT) of 0.906 and an AUC (T47D_BREAST) of 0.698. It also gave an AUC (T98G_CENTRAL_NERVOUS_SYSTEM) of 0.830, an AUC (TC32_BONE) of 0.681 and an AUC (TCCPAN2_PANCREAS) of 0.905. The AUC (TE1_OESOPHAGUS) was 0.875, the AUC (TE5_OESOPHAGUS) was 0.797 and the AUC (TE6_OESOPHAGUS) was 0.864. For the same molecule, the AUC (TE8_OESOPHAGUS) was 0.802, the AUC (TE9_OESOPHAGUS) was 0.911 and the AUC (TE10_OESOPHAGUS) was 0.872. For the same molecule, the AUC (TE11_OESOPHAGUS) was 0.870, the AUC (TE14_OESOPHAGUS) was 0.898 and the AUC (TEN_ENDOMETRIUM) was 0.815. For the same molecule, the AUC (TM31_CENTRAL_NERVOUS_SYSTEM) was 0.424, the AUC (TOV21G_OVARY) was 0.864 and the AUC (TOV112D_OVARY) was 0.871. The AUC (TT2609C02_THYROID) was 0.251, the AUC (TTC709_SOFT_TISSUE) was 0.520 and the AUC (TT_OESOPHAGUS) was 0.859. For the same molecule, the AUC (TT_THYROID) was 0.179, the AUC (TUHR4TKB_KIDNEY) was 0.265 and the AUC (U2OS_BONE) was 0.862. It also gave an AUC (U87MG_CENTRAL_NERVOUS_SYSTEM) of 0.724, an AUC (U118MG_CENTRAL_NERVOUS_SYSTEM) of 0.871 and an AUC (U251MG_CENTRAL_NERVOUS_SYSTEM) of 0.806. The AUC (UACC62_SKIN) was 0.837, the AUC (UACC257_SKIN) was 0.863 and the AUC (UBLC1_URINARY_TRACT) was 0.875. For the same molecule, the AUC (UO31_KIDNEY) was 0.710, the AUC (VMRCRCW_KIDNEY) was 0.345 and the AUC (VMRCRCZ_KIDNEY) was 0.969. The AUC (WM88_SKIN) was 0.802, the AUC (WM793_SKIN) was 0.866 and the AUC (WM983B_SKIN) was 0.861. It also gave an AUC (WM1799_SKIN) of 0.101, an AUC (WM2664_SKIN) of 0.578 and an AUC (X8MGBA_CENTRAL_NERVOUS_SYSTEM) of 0.805. For the same molecule, the AUC (X42MGBA_CENTRAL_NERVOUS_SYSTEM) was 0.845, the AUC (X253JBV_URINARY_TRACT) was 0.966 and the AUC (X253J_URINARY_TRACT) was 0.905. The AUC (X647V_URINARY_TRACT) was 0.284, the AUC (X769P_KIDNEY) was 0.463 and the AUC (X786O_KIDNEY) was 0.853. It also gave an AUC (X5637_URINARY_TRACT) of 0.624, an AUC (X8305C_THYROID) of 0.849 and an AUC (X8505C_THYROID) of 0.558. It also gave an AUC (X2313287_STOMACH) of 0.254, an AUC (YAPC_PANCREAS) of 0.719 and an AUC (YD8_UPPER_AERODIGESTIVE_TRACT) of 0.501. The AUC (YD10B_UPPER_AERODIGESTIVE_TRACT) was 0.903, the AUC (YD38_UPPER_AERODIGESTIVE_TRACT) was 0.877 and the AUC (YKG1_CENTRAL_NERVOUS_SYSTEM) was 0.936. It also gave an AUC (ZR751_BREAST) of 0.853.
